“And” between values parts separate entries of the source, which are not always exact repeats. Equal entries are not always repeated.
Columns and labels:
[1] = tested on: Rex1-RFP ESCs; assay: Cell counts and doubling rate of Rex1-RFP ESCs at time zero and 3 days of sorbitol; type: cell-based, mouse; details: 72 hr; for Doubling Rate: 0 mM 32.7 hr; for Relative Cell# (Total #, OUTSIDE BOX): time zero = 100, 0 mM = 460
Source text: FIG. 28. Partial validation of the Theory of Compensatory Differentiation whereby stress decreases in size the normal levels of stem cell expansion and, in the nonmorbid stress range where doubling rates were near-normal, the diminished potency group that is enabled to differentiate is constant in size. […] A modified Venn diagram from previous modeling is presented here and analyzed with respect to supporting flow cytometry data for changes in potency subpopulation sizes derived from Table 8 and discussed in the text. For convenience, Table 8 is reproduced here:
Finally it was tested whether endogenous Rex1 protein levels decreased commensurately with decreases in Rex1-RFP activity levels assayed in FIG. 24. Rex1-RFP ESCs were cultured for 3 days with 0-300 mM sorbitol and assayed by immunoblot for endogenous Rex1 levels normalized to ACTB loading controls and with time zero unstressed Rex1 set to 100 as a baseline level. Whereas stress-induced decrease in Rex1 activity in FIG. 24 were 20% and 70% at 200 mM and 300 mM sorbitol, respectively endogenous Rex1 protein losses were 30% and 70% at 200 mM and 300 mM, respectively (FIG. 27). Through the series from 200 mM to 300 mM sorbitol there was generally good agreement between activity level and endogenous protein level for Rex1 at 3 days of stress and with Rex1 protein loss at 1 day (Example 2). To correlate stress-induced Rex1 potency loss with stress-induced diminished cell growth rates, cell counts were performed at time zero and at 3 days over the same sorbitol dose range as in FIG. 27 and FIG. 24 and FIGS. 26A & 26B. […]; see Brief Description of the Figures for Table 8).
The stress dose-dependent cell number of low potency cells can be determined by multiplying the fractional subpopulation size of cells with potency loss, which increases with stress and the decreasing cell numbers with increasing stress. This was done in Table 8 and compared with a previously published Venn diagram for compensatory differentiation (Puscheck, 2015, MB; Rappolee, 2013), modified to produce FIG. 28. In the stress-dose range where population size decreases, but increasing doubling rate is in a manageable range, the absolute size of the subpopulation of potency loss (intermediate and very low dim cells) is remarkably the same. At stress doses where very large doubling rate increases occur the subpopulation number with potency loss decreases, probably due to stem cell morbidity at these higher hyperosmotic stress levels (Example 2). Thus all three lines of evidence summarized here are consistent with the theory, but with limitations.

[2] = tested on: Rex1-RFP ESCs, Oct4-GFP ESCs; assay: Plate reader fluorescence of Rex1-RFP and Oct4-GFP reporter ESCs; type: cell-based, mouse; details: 3 days
Experimental: FIGS. 23A and 23B. Stress induces loss of Rex1-RFP but not Oct4-GFP after days of 200 mM sorbitol. Viable pluripotency reporter Rex1-RFP ESCs (FIG. 23A) or Oct4-GFP ESCs (FIG. 23B) were cultured in […] plates to 30% confluence. Cells were then treated with 200 mM of sorbitol as an osmotic stress for 3 days. Fluorescence was determined from live ESCs using a plate reader from 200 mM sorbitol treated cells was normalized with the non-sorbitol treated control cells. Four independent experiments were carried out and plotted here.
FIG. 24. Viable Rex1 promoter reporter responds with stress treatment in a dose-dependent manner in flow cytometry assay. mESCs expressing Rex1 promoter reporter were cultured in 12-well plates till 30% confluent. Cells were then treated with 200-300 mM of sorbitol in 25 mM increments for 3 days. After trypsinization cell suspensions were assayed by flow cytometry.
mESC culture and stimulation. […] Osmolality of ESC media with and without added 200 mM sorbitol was determined as in Example 2.
Fluorescence determination by plate reader of pluripotency reporters. mESCs that stably express Oct4-copGFP and/or Rex1-mApple promoter reporters were plated on 96-well plates at a starting confluence of 5%. Four identical plates were made for the time course study. Cells were grown for 24 hr in incubator till 10% confluence was reached; an addition of stimuli was designated time zero. The cells were stressed for a time period selected from 1, 2, or 3 days. At each time point, the medium was removed and the cells were rinsed with D-PBS. At 50 μl/well, ESCs were measured for fluorescence using the Synergy H1 microplate reader (BioTek, Winooski, VT). The excitation and detection wavelengths for Oct4-copGFP were 485 nm and 528 nm, respectively. The excitation and detection wavelengths for Rex1-mApple were 568 nm and 611 nm, respectively. After live-cell reading, the cells were lysed with 50 μL of lysis buffer (1% NP-40, 0.5% TX-100, 100 mM NaCl, 2 mM EDTA, 50 mM Tris-HCl, and pH 7.5) and measured for fluorescence with the same parameters above. After fluorescence determination, the cell lysates were further measured for total protein concentrations by adding 100 μl of Pierce BCA protein assay reagent (Thermo Scientific Inc.) following the manufacturer's instructions. Finally, the fluorescence readings from either live-cells or lysates were normalized to total protein concentration readings, in which higher readings represent higher pluripotency of the cells.

## OC[C@@H](O)[C@@H](O)[C@H](O)[C@@H](O)CO [sorbitol]
[1]; 200 mM
  % Dim + Intermediate × Cell# (INSIDE BOX cell number): 9893
  Doubling Rate: 34.1 h
  Relative Cell# (Total #, OUTSIDE BOX): 432
[1]; 225 mM
  % Dim + Intermediate × Cell# (INSIDE BOX cell number): 9930
  Doubling Rate: 35.6 h
  Relative Cell# (Total #, OUTSIDE BOX): 407
[1]; 250 mM
  % Dim + Intermediate × Cell# (INSIDE BOX cell number): 9968
  Doubling Rate: 39.3 h
  Relative Cell# (Total #, OUTSIDE BOX): 356
[1]; 275 mM
  % Dim + Intermediate × Cell# (INSIDE BOX cell number): 7418
  Doubling Rate: 51.4 h
[1]; 300 mM
  % Dim + Intermediate × Cell# (INSIDE BOX cell number): 4540
  Doubling Rate: 103.4 h
  Relative Cell# (Total #, OUTSIDE BOX): 161 and 162
[1]; 200-250 mM range
  cell doubling rates: 34.1 to 39.3 h
[1]; 275-300 mM
  cell doubling rates: 51.4 to 103.4 h
[2]; 200 mM, LIF present
  Rex1-RFP fluorescence: significant loss
  decrease in Rex1-RFP activity: 20%
[2]; 200 mM, vs non-sorbitol control
  Oct4-GFP fluorescence: not significantly different
[2]; all doses 200-300 mM in 25 mM increments
  Rex1-RFP fluorescence: significant decrease

— patent US20250154611A1, “SYSTEMS AND METHODS TO DETECT STEM CELL STRESS AND USES THEREOF” (Wayne State University, priority 2014, published 2025)
